Results published in patent publication USRE29337E, “Dicarboxylic acid soaps” (priority 1976, dated 1977).

Columns and labels:
[1] = Solubilities of various fatty acid soaps in water (Example 1); assay type: physicochemical
Description: Likewise, just as the type of fatty acid used influences soap properties, so does the choice of neutralizing agent. Therefore, various available inorganic alkalis were also compared.
The procedure for making the fatty acid soaps was to dissolve the inorganic alkali in the prescribed amount of water, heating to 150° F. The fatty acid was slowly added to the alkali solution and agitated for a few minutes.

[2] = Viscosity vs percentage real soap, Brookfield viscometer (Example 4, FIGURE); assay type: physicochemical
From the text: A property of the soaps which points up this solubility advantage of C21 dicarboxylic acid soap and which is also important for C21 dicarboxylic acid utility is the viscosity of the soap. […] The solubility of the various soaps may be illustrated by the viscosity of the soaps which is shown in the accompanying figure. […] The coconut fatty acid potassium soap is somewhat poorer than the C21 dicarboxylic acid soap since its viscosity goes above twenty centipoises at 30% real soap.
This example illustrates a comparison of viscosity changes with potassium solids. Liquid soaps of fatty acids must be fairly fluid for ease in dispensing and using them. Therefore, a measure of the change in viscosity of a soap solution as percentage soap present increases is an easy method for determining the concentration of soap that can be used. The curves in the accompanying FIGURE show this relationship. A Brookfield viscometer was used to determine these curves at 25° C. […] The fact that 50% oleic acid/50% coconut soap is required to obtain a viscosity of 20 cps. at 30% real soap; whereas only 25% C21 dicarboxylic acid soap/75% tall oil fatty acid is needed to reach the same viscosity level is typical of the significance of the C21 dicarboxylic acid soaps.

[3] = Liquid soap formulations (Example 8); assay type: physicochemical; details: for pH of formulation: liquid soap formulations, excess base kept very low; for compatibility of pine oil with soap formulation: pine oil at 3% addition; for state of liquid soap: sodium hydroxide substituted for potassium hydroxide
Description: The formulation used was 12% coconut fatty acids, 3% soya or tall oil fatty acid, 4.4% KOH, 1% KCL, 80% water and a perfume as desired. In all of the soaps pine oil was added as the perfume at 3% addition.
The pine oil was compatible with the C21 dicarboxylic acid soap formulation. Of course, with C21 dicarboxylic acid soap much more concentrated, fluid soaps were prepared.
To further test the advantages of C21 dicarboxylic acid soap in liquid soaps, sodium hydroxide was substituted for the potassium hydroxide in each of the formulations mentioned above. […] In all of these formulations the excess base was kept at a very low level so that the pH's were about 9 for the C21 dicarboxylic acid and coconut fatty acid systems and about 11 for the oleic acid systems.

[4] = Shampoo formulations, soap content (Example 9); assay type: physicochemical; details: 99% solids
From the text: A product similar to the liquid soaps in composition is shampoo. Basically, shampoos are simply perfumed soap solutions which need to lather easily and which have a fairly high soap content. Consequently, most shampoos consist from 50% to 100% of the solids as coconut fatty acid soaps. With such a formulation a viscous potassium soap of about 35% real soap (solids) can be prepared. If the triethanolamine soap is used, a 40% real soap may be formulated. As is obvious from the earlier discussion, C21 dicarboxylic acid soap would allow for greater flexibility in the amount of soap present in the shampoo and also allow for the utility of a lower priced cation, sodium.
An area closely related to the liquid soaps is shampoos. The formulations are similar but, since profuse sudsing is desired in shampoos and since low viscosity is not critical, the real soap content is more than twice as high. To get 35% soap in a formulation, coconut fatty acids or a blend of 50% coconut-50% oleic must be used. A 40% soap shampoo can be prepared using triethanolamine rather than potassium hydroxide to form the soap. […] C21 dicarboxylic acid has a major economic advantage in this application since sodium hydroxide could be used instead of potassium hydroxide.

[5] = one-half of the carboxyl groups as carboxylate anions
From the text: Since each molecule of C21 dicarboxylic acid has two carboxyl groups of varying acidity it is possible to convert the most acidic of these to the soap and the molecule becomes water-soluble leaving a free acid group on each molecule. […] A soap solution of C21 dicarboxylic acid can be prepared at any pH above 6.5, so in the case of amine soaps one can prepare the soap in such a way as to have free acid groups rather than excess amine, so there is no amine odor.
Of course, these soaps all have a pH of about 6.7 and have one free carboxylic acid group in solution.
Since the C21 dicarboxylic acid has two acid groups of different strengths, it is very easy to prepare the mono or half soap of the diacid.

[6] = potassium soaps; cited from earlier work
[7] = assay type: physicochemical
From the text: is often desirable when making liquid soaps, as well as toilet soaps, having tailored properties, to blend together various fatty acids to achieve desirable characteristics and lessen the undesirable ones.

[8] = Amine soaps: dilution with water and gelling (Example 5); assay type: physicochemical; details: triethylamine soap; diluted slowly with water, C21 soap down to 25% solids
Description: The C21 dicarboxylic acid-amine soaps were also prepared using diethanolamine and monoethanol amine.

[9] = Fluidity and gelling of soaps (general description); assay type: physicochemical; details: potassium soap
From the text: The C21 dicarboxylic acid soaps are made by neutralizing the C21 dicarboxylic acid. The neutralizing agent used is based on the solubility characteristics desired in the soap and economic considerations. The neutralizing agents contemplated include those of the following cations, sodium, potassium, lithium and ammonium. These cations may be obtained from such inorganic alkalis as caustic soda, caustic potash, and soda ash. Another cation which may be used is the ammonium cation. Organic amines may also be used, specifically amines such as triethylamine, monoethylamine, diethylamine, and alkanolamines, such as ethanolamine, triethanolamine and diethanolamine. The soaps made from the above listed neutralizing agents are all liquid at temperatures as low as 30° F.
For example, the potassium soap of oleic acid is a viscous fluid at about 18% solids and gels at 19%-20% solids. However, the potassium soap of oleic acid blended with 40% C21 dicarboxylic acid potassium soap is very fluid at 30 to 40% solids. This general characteristic of increased solubility is advantageous to all soap users for economy in shipping and handling. It also allows for cuts in production costs in applications where water is removed from the final product, since less water is added with the soap when a C21 dicarboxylic acid soap is used. […]

[10] = cation K, 40 percent solids in water

## 5 carboxy-4-hexyl-2-cyclohexene-1-octanoic acid and 6 carboxy-4-hexyl-2 cyclohexene-1-octanoic acid [C21 dicarboxylic acid]
[1]
  water solubility compared with soaps of conventional fatty acids: water soluble at higher solids content
[1]; cation K, 20 percent solids in water
  Characteristics: Solution
[1]; cation K, 80 percent solids in water
  Characteristics: Viscous solution
[1]; cation Li, 10 percent solids in water
  Characteristics: Solution
[1]; cation Na, 20 percent solids in water
  Characteristics: Solution
[1]; cation Na, 65 percent solids in water
  Characteristics: Viscous solution
[2]
  viscosity of blends with oleic acid soap and coconut soap: low viscosity blends
[3]
  pH of formulation: about 9
  state of liquid soap: very fluid
[3]; listed as C21 dicarboxylic acid soap
  compatibility of pine oil with soap formulation: compatible
[3]; listed as C21 dicarboxylic acid soaps
  compatibility of pine oil with soap formulation: very compatible
[3]; sodium hydroxide formulation, storage
  precipitation: no signs of precipitating after three months
[4]
  gelling: does not gel
[5]
  water-solubility of partly neutralized acid: water-soluble

## CCCCCCCCCC(=O)O [Decanoic acid (C10), Decanoic acid]
[6]
  highest solids soaps that are still fluid at room temperature: 40%

## CCCCCCCCCCCC(=O)O [Lauric acid (C12), Lauric acid]
[1]; cation K, 33 percent solids in water
  Characteristics: Viscous solution
[1]; cation K, 36 percent solids in water
  Characteristics: Gel
[6]
  highest solids soaps that are still fluid at room temperature: 35%

## CCCCCCCCC(=O)O [Nonanoic acid (G9), Nonanoic acid]
[1]; cation K, 35 percent solids in water
  Characteristics: Viscous solution
[1]; [10]
  Characteristics: Gel

## CCCCCCCC(=O)O [Octanoic acid (C8), Octanoic acid]
[1]; [10]
  Characteristics: Viscous solution
[1]; cation K, 45 percent solids in water
  Characteristics: Gel
[6]
  highest solids soaps that are still fluid at room temperature: 45%

## CCCCCCCC/C=C\CCCCCCCC(=O)O [Vegetable derived oleic acid (C18), oleic acid]
[7]
  Characteristics at 25° C.: Gel

## CCCCCCCC/C=C\CCCCCCCC(=O)O [oleic acid]
[8]
  gelling on dilution with water: a gel formed immediately upon the addition of water
[3]
  pH of formulation: about 11
  state of liquid soap: gels
[3]; potassium hydroxide formulation, in place of coconut fatty acids
  fluidity of liquid soap: very viscous soap of questionable utility
[6]
  highest solids soaps that are still fluid at room temperature: 20%

## CCCCCCCC/C=C\CCCCCCCC(=O)O [potassium soap of oleic acid]
[2]; potassium soap solution, 25° C.
  percentage real soap at which viscosity exceeds twenty centipoises: 16 % real soap
[9]
  percent solids at which soap is a viscous fluid: about 18 % solids
